From PubChem BioAssay AID328 (DTP/NCI, 2004) come the findings set out here.

The assay concerns BDF1 mice, P388 leukemia ip, median survival T/C. Briefly: NCI In Vivo Anticancer Drug Screen. Data for tumor model P388 Leukemia (intraperitoneal) in B6D2F1 (BDF1) mice. Conditions: endpoint: median survival time, higher = longer survival. The method, boiled down:
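Vehicle-dosed animals serve as the reference; survival of compound-dosed, tumour-implanted mice is divided by it.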

Where [1] appears, read: dose: 100.0 mg/kg/injection, schedule: Q01DX009 (ip), vehicle: saline with Tween-80.
Where [2] appears, read: dose: 200.0 mg/kg/injection, schedule: Q01DX009 (ip), vehicle: saline with Tween-80.
[3] abbreviates: dose: 50.0 mg/kg/injection, schedule: Q01DX009 (ip), vehicle: saline with Tween-80.
The mark [4] stands for this setting: dose: 100.0 mg/kg/injection, schedule: Q04DX003 (ip), vehicle: saline with Tween-80.
Setting [5] is: dose: 200.0 mg/kg/injection, schedule: Q04DX003 (ip), vehicle: saline with Tween-80.
Setting [6] is: dose: 400.0 mg/kg/injection, schedule: Q04DX003 (ip), vehicle: saline with Tween-80.
Setting [7] is: dose: 400.0 mg/kg/injection, schedule: Q04DX003 (ip), vehicle: saline sonified.
Setting [8] is: dose: 200.0 mg/kg/injection, schedule: Q01DX009 (ip), vehicle: saline.
The mark [9] stands for this setting: dose: 100.0 mg/kg/injection, schedule: Q04DX003 (ip), vehicle: saline.
The mark [10] stands for this setting: dose: 200.0 mg/kg/injection, schedule: Q04DX003 (ip), vehicle: saline.
Setting [11] is: dose: 400.0 mg/kg/injection, schedule: Q04DX003 (ip), vehicle: saline.
The mark [12] stands for this setting: dose: 50.0 mg/kg/injection, schedule: Q01DX009 (ip), vehicle: saline.
Where [13] appears, read: dose: 100.0 mg/kg/injection, schedule: Q01DX009 (ip), vehicle: saline.

Values joined by “and” are separate entries in the source; they are usually repeats but may differ in a detail not shown here. Identical values can stand only once. Toxic doses and inconclusive results are not listed.

As for `O=c1[nH]c(=O)c(C2OC(CO)C(O)C2O)co1` (stereo not given), the T/C (dose: 20.0 mg/kg/injection, schedule: Q04DX003 (ip), vehicle: saline with Tween-80) is 100 % of control.
`CC(C)c1cc(C(C)C)nc(NNc2nc(C(C)C)cc(C(C)C)n2)n1`: the T/C was 90 % of control under setting [1]; 90 % of control under setting [2]; 100 % of control (dose: 400.0 mg/kg/injection, schedule: Q01DX009 (ip), vehicle: saline with Tween-80).
As to `CCOC(=O)C1C(C)OC(=O)C(Br)C1C` (stereo not given), the T/C under setting [3] is 97 % of control, the T/C under setting [1] is 98 % of control and the T/C under setting [2] is 104 % of control.
In the case of `Clc1ccc(CBr)c2ccccc12`, the T/C runs as follows: (dose: 12.5 mg/kg/injection, schedule: Q01DX009 (ip), vehicle: saline with Tween-80) 108 % of control; (dose: 25.0 mg/kg/injection, schedule: Q01DX009 (ip), vehicle: saline with Tween-80) 106 % of control; under setting [3], 110 % of control.
Consider `C/C=C1/CN(C)C2Cc3c([nH]c4ccccc34)C(c3cc4c5c([nH]c4cc3OC)C3(C(=O)OC)CC4CC(CC)C3N(CC5)C4)CC1C2C(=O)OC` (stereo not given), for which the T/C by setting is: (dose: 1.3 mg/kg/injection, schedule: Q01DX009 (ip), vehicle: alcohol) 88 % of control; (dose: 4.0 mg/kg/injection, schedule: Q01DX009 (ip), vehicle: alcohol) 87 % of control; (dose: 12.0 mg/kg/injection, schedule: Q01DX009 (ip), vehicle: alcohol) 88 % of control.
For the compound `CCOC(=O)c1c(OC(C)=O)cc2c(c1OC(C)=O)-c1ccccc1CC2`, the T/C was 90 % of control under setting [4], 97 % of control under setting [5] and 99 % of control under setting [6].
For `CC[N+](CC)(CC)CCCC[N+](CC)(CC)CC`, the T/C is, setting by setting: (dose: 12.5 mg/kg/injection, schedule: Q01DX009 (ip), vehicle: water) 97 % of control; (dose: 25.0 mg/kg/injection, schedule: Q01DX009 (ip), vehicle: water) 95 % of control; (dose: 25.0 mg/kg/injection, schedule: Q04DX003 (ip), vehicle: water) 109 % of control; (dose: 50.0 mg/kg/injection, schedule: Q01DX009 (ip), vehicle: water) 100 % of control; (dose: 50.0 mg/kg/injection, schedule: Q04DX003 (ip), vehicle: water) 104 % of control.
On to `COc1ccc(Nc2nc(N)nc(CNc3ccc(Cl)cc3)n2)cc1`, for which the T/C (dose: 100.0 mg/kg/injection, schedule: Q04DX003 (ip), vehicle: saline sonified) is 100 % of control; the T/C (dose: 200.0 mg/kg/injection, schedule: Q04DX003 (ip), vehicle: saline sonified) is 100 % of control; the T/C under setting [7] is 110 % of control.
In the case of `OC1CC2c3ccccc3C1c1cccc[n+]12` (stereo not given), the T/C (dose: 12.5 mg/kg/injection, schedule: Q01DX009 (ip), vehicle: Klucel (hydroxypropylcellulose) (HPC)) is 87 % of control and 91 % of control; the T/C (dose: 25.0 mg/kg/injection, schedule: Q01DX009 (ip), vehicle: Klucel (hydroxypropylcellulose) (HPC)) was 104 % of control; the T/C (dose: 50.0 mg/kg/injection, schedule: Q01DX009 (ip), vehicle: Klucel (hydroxypropylcellulose) (HPC)) is 91 % of control and 100 % of control; the T/C (dose: 56.25 mg/kg/injection, schedule: Q04DX003 (ip), vehicle: Klucel (hydroxypropylcellulose) (HPC)) is 100 % of control; the T/C (dose: 75.0 mg/kg/injection, schedule: Q01DX009 (ip), vehicle: Klucel (hydroxypropylcellulose) (HPC)) is 100 % of control; the T/C (dose: 112.5 mg/kg/injection, schedule: Q04DX003 (ip), vehicle: Klucel (hydroxypropylcellulose) (HPC)) was 108 % of control.
As for `CCCCc1[nH]nc2c1C(=O)C(Nc1ccccc1)=CC2=O`, the T/C was 103 % of control under setting [4], 100 % of control under setting [5] and 100 % of control under setting [6].
Consider `COc1cccc2c1C(=O)c1c(O)c3c(c(O)c1C2=O)C[C@@](O)(/C(C)=N/NC(=O)c1ccc(Cl)cc1)C[C@@H]3OC1CC(N)C(O)C(C)O1` (stereo not given in full), for which the T/C (dose: 0.5 mg/kg/injection, schedule: Q01DX009 (ip), vehicle: water) was 110 % of control; the T/C (dose: 1.0 mg/kg/injection, schedule: Q01DX009 (ip), vehicle: water) is 107 % of control and 214 % of control; the T/C (dose: 2.0 mg/kg/injection, schedule: Q01DX009 (ip), vehicle: water) is 303 % of control; the T/C (dose: 4.0 mg/kg/injection, schedule: Q01DX009 (ip), vehicle: water) is 238 % of control and 115 % of control; the T/C (dose: 8.0 mg/kg/injection, schedule: Q01DX009 (ip), vehicle: water) was 164 % of control.
For `Cn1cnc([N+](=O)[O-])c1Sc1ncnc2nc[nH]c12`, the T/C (dose: 44.0 mg/kg/injection, schedule: Q04DX003 (ip), vehicle: saline sonified) was 110 % of control; the T/C (dose: 66.0 mg/kg/injection, schedule: Q04DX003 (ip), vehicle: saline sonified) is 120 % of control; the T/C (dose: 150.0 mg/kg/injection, schedule: Q04DX003 (ip), vehicle: saline sonified) is 175 % of control; the T/C under setting [8] was 86 % of control; the T/C under setting [7] is 109 % of control.
Consider `CCOC(=O)CCOCOCCC(=O)OCC`, for which the T/C is, setting by setting: under setting [9], 100 % of control; under setting [10], 95 % of control; under setting [11], 95 % of control.
As for `CN(C)c1ccc(C(=O)O)cn1`, the T/C under setting [12] is 100 % of control; the T/C under setting [13] was 101 % of control; the T/C under setting [9] was 102 % of control; the T/C (dose: 200.0 mg/kg/injection, schedule: Q01DX007 (ip), vehicle: saline) was 110 % of control; the T/C under setting [8] is 92 % of control; the T/C under setting [10] was 100 % of control. Further, the T/C was 108 % of control (dose: 300.0 mg/kg/injection, schedule: Q01DX007 (ip), vehicle: saline); 100 % of control (dose: 400.0 mg/kg/injection, schedule: Q01DX007 (ip), vehicle: saline); 109 % of control under setting [11]; 106 % of control (dose: 500.0 mg/kg/injection, schedule: Q01DX007 (ip), vehicle: saline); 110 % of control (dose: 600.0 mg/kg/injection, schedule: Q01DX007 (ip), vehicle: saline).
On to `CNc1ccc2c(c1)C(=O)c1c(C)n(C)c3cccc-2c13`, for which the T/C (dose: 12.5 mg/kg/injection, schedule: Q01DX005 (ip), vehicle: saline with Tween-80) is 98 % of control and the T/C (dose: 25.0 mg/kg/injection, schedule: Q01DX005 (ip), vehicle: saline with Tween-80) was 98 % of control.
Turning to `CCCCNC=O`, the T/C is 91 % of control (dose: 25.0 mg/kg/injection, schedule: Q01DX009 (ip), vehicle: saline); 100 % of control under setting [12]; 100 % of control (dose: 100.0 mg/kg/injection, schedule: Q01DX001 (ip), vehicle: saline); 100 % of control and 104 % of control under setting [13]; 95 % of control under setting [9]; 100 % of control (dose: 200.0 mg/kg/injection, schedule: Q01DX001 (ip), vehicle: saline). The T/C under setting [8] is 104 % of control; the T/C under setting [10] is 95 % of control; the T/C (dose: 400.0 mg/kg/injection, schedule: Q01DX001 (ip), vehicle: saline) was 100 % of control; the T/C (dose: 400.0 mg/kg/injection, schedule: Q01DX009 (ip), vehicle: saline) is 104 % of control; the T/C under setting [11] was 104 % of control.
With `Cc1ccc2nc(-c3ccccc3N)[nH]c2c1`, the T/C is 100 % of control under setting [4], 104 % of control under setting [5] and 90 % of control under setting [6].
As for `O=C1OC(=Nc2cccc([N+](=O)[O-])c2)c2ccccc21`, the T/C runs as follows: under setting [3], 150 % of control; under setting [2], 97 % of control.
As for `CC[C@H](CC[C@@H](C)[C@H]1CC[C@H]2[C@@H]3CC=C4C[C@@H](OC(=O)CSC(CC(=O)O)C(=O)O)CC[C@]4(C)[C@H]3CC[C@]12C)C(C)C` (stereo not given in full), the T/C reads like this: (dose: 100.0 mg/kg/injection, schedule: Q01DX009 (ip), vehicle: Klucel (hydroxypropylcellulose) (HPC)) 109 % of control; (dose: 200.0 mg/kg/injection, schedule: Q01DX009 (ip), vehicle: Klucel (hydroxypropylcellulose) (HPC)) 104 % of control.
For `CCCCCCCCCCCCCCCCCOc1ccc(I)cc1`, the T/C is 95 % of control (dose: 50.0 mg/kg/injection, schedule: Q01DX001 (ip), vehicle: saline with Tween-80); 100 % of control (dose: 100.0 mg/kg/injection, schedule: Q01DX001 (ip), vehicle: saline with Tween-80); 90 % of control (dose: 200.0 mg/kg/injection, schedule: Q01DX001 (ip), vehicle: saline with Tween-80).
